Data taken from patent US6569451B1, “Targeted polymerized liposome diagnostic and treatment agents” (Targesome, Inc., priority 1994, dated 2003).

Columns and labels:
[1] = rat, in vivo; cited from earlier work
[2] = Magnetic resonance relaxivity (R1, R2) of paramagnetic polymerized liposomes; assay type: physicochemical
Description: We have constructed paramagnetic polymerized liposomes using the above techniques with 2.5 to 100 mol % of the gadolinium chelated diamide shown in FIG. 4, with the polyethylene glycol linker m=1 and m=2, and sizes ranging from 30 nm to 200 nm in diameter. We have determined the maximum T1 relaxivity, showing the best contrast, is obtained with 15% gadolinium chelated diamide and 85% DAPC with m=2 and having 200 nm particle size. High relaxivity is also observed with 30% gadolinium chelated diamide and 70% PDA with m=1 and having a variable particle size of about 10 to about 200 nm.
Similar measurements were made using PDA liposomes as the matrix lipid and the gadolinium chelated diamide (m=1).

Question: With `O=C([O-])CN(CCN(CC(=O)[O-])CC(=O)O)CCN(CC(=O)[O-])CC(=O)O.[Gd+3]` [Gd (DTPA), gadolinium diethylenetriaminepentaacetic acid] as the compound, how does the “elimination from the blood pool” value [1] read?
Answer: The value was “within a few minutes”.

Question: What about the “molar relaxivity per Gd^+3 ion” value [2] of the same compound?
Answer: Its value is 4.2 mM⁻¹ s⁻¹.

Question: What about the R1 ([2]; DAPC matrix lipid, gadolinium-diamide %, linker m and size as in label) of the same compound?
Answer: Its R1 is 4.4 s⁻¹ mM⁻¹.
